This is an account of results in PMC7408072 (Pharmaceutics, 2020).

In data set [1] the test system is bovine BCEC monolayers co-cultured with rat astrocytes. The data set is described as follows: Barrier integrity by transendothelial electrical resistance (TEER). It counts as cell-based. As to conditions: 3 h, bovine BBB model; for barrier integrity (TEER before and after peptide application): 100 µM peptide, 37 °C, N = 3, n = 3. On the procedure:
Transport across bovine or mouse BCEC monolayers co-cultured with rat astrocytes was carried out over 3 h at 37 °C with horizontal shaking (90 rpm). TEER was measured at room temperature using an Endohm 12 cup (World Precision Instruments, Sarasota, FL, USA) connected to a Millicell-ERS device (Millipore, Bedford, MA, USA). TEER was measured before application of the peptides and after each experiment. The bovine model had initial TEER values ranging from 771 to 1332 Ω·cm^2, whereas the mouse model had initial TEER values ranging from 136 to 217 Ω·cm^2.

Data set [2] in a line: Peptide stability in serum-containing cell media. Type of data set: in vitro ADME, bovine. As to conditions: differentiation medium with 10% FBS, 37 °C, 100 µM peptide, urea/TCA-acetone protein precipitation, UPLC C18, UV 214 and 498 nm, mean ± SD, N = 2. On the procedure: Samples (20 µL) were withdrawn at 0, 15, 30, 60, 120, 180, and 240 min. At room temperature, 50 µL of 6 M urea was added for 10 min to denature plasma proteins. To precipitate plasma proteins, 50 µL of 20% (w/v) trichloroacetic acid in acetone was added and the sample incubated at −20 °C for 10 min. The samples were spun down at 10,000× g for 5 min at 5 °C. The acetone phase containing the TAMRA-peptides was filtered (pore size 0.22 µm) prior to analysis by UPLC using a Waters Acquity system with a C18 BEH reverse phase column (BEH C18 column, 2.1 mm × 50 mm × 1.7 µm). Mobile phase A consisted of 95% ultrapure water and 5% acetonitrile (ACN) with 0.1% trifluoroacetic acid (TFA) and mobile phase B of 95% ACN and 5% ultrapure water with 0.1% TFA. A linear gradient was used (min/%B): 0/5%, 12/45%, 12.1/100%, 13/100%, 13.1/5%, 15/5%, with a flow rate of 0.45 mL/min over 15 min with UV detection at 214 and 498 nm. Lower limits of detection are 6.2 µM for TAMRA-NR2B9c, 0.8 µM for TAMRA-Tat, 1.6 µM for TAMRA-Tat-NR2B9c, and 1.6 µM for TAMRA-Tat-N-dimer.

The next data set concerns blood–brain barrier. In words: In vivo two-photon imaging of BBB permeation. The note with it: 3 nmol peptide/g body weight via femoral artery, 1 h, mean ± SEM, N = 5; for BBB permeation: AUC of change in TAMRA fluorescence in the brain parenchyma: anesthetized C57BL/6 mice, two-photon imaging; for clearance: AUC of decreased fluorescence in the blood stream: blood vessel ROIs. On the procedure:
Animals and operational procedure: We used 12–14-week-old C57BL/6 mice (24–26 g) and performed the surgical procedures as described previously. Anesthesia was induced by intraperitoneal (i.p.) injection of xylazine (10 mg/kg body weight; ScanVet, Fredensborg, Denmark) and ketamine (60 mg/kg body weight; MSD Animal Health, København, Denmark), and maintained by supplementary i.p. injections of ketamine (30 mg/kg body weight) every 20–25 min. The trachea was surgically exposed, and a custom-made metal tube inserted into the trachea lumen for mechanical respiration (180–220 μL volume; 190–240 strokes/min) with oxygen-supplemented air (1.5–2 mL/min) using a MiniVent Type 845 ventilator (Harvard Apparatus, Holliston, MA, USA). Catheters were inserted into the femoral vein and the femoral artery. The incisions were closed with surgical staples. After cannulation, the animal was placed in a prone position. The scalp was removed and FeCl3 (0.62 M) administered to clean off the periosteum. The exposed skull was subsequently washed with saline, dried, and attached to a custom-made metal plate using a cyanoacrylate gel (Henkel’s LOCTITE®, Düsseldorf, Germany). The animal head was mounted onto the imaging stage insert and craniotomy performed using a dental drill (7000 rpm; 4 mm lateral and 1 mm posterior to bregma, Ø = 3 mm). The bone flap and dura were carefully removed, and the surface of the brain gently washed with artificial cerebrospinal fluid (120 mM NaCl, 2.8 mM KCl, 1 mM Na2HPO4, 0.876 mM MgCl2, 22 mM NaHCO3, 1.45 mM CaCl2, 2.55 mM glucose, pH 7.4, 37 °C, 5% CO2). We applied 1% type III-A agarose to the brain surface, and a Menzel glass coverslip (4 × 4 mm, 0.08-mm thick; Thermo Fischer Scientific, Bedford, MA, USA) was positioned to seal the major part of the craniotomy, leaving only an opening for the glass microelectrode used in the electrophysiological assessment. The mouse was transferred to the imaging stage. Following the insertion of the glass microelectrode, the anesthesia was switched to α-chloralose administered intravenously at a constant flow of 50 mg/kg body weight/hour. The mouse was left for 25 min for anesthesia equilibration before imaging. During all procedures, the animal was maintained at 37 °C using a YSI-451rectal thermistor probe (E-Z Systems, Palmer, PA, USA) with a TC-1000 Mouse Proportional controlling unit connected to a heating pad (08-13013; CWE Incorporated, Palmer, PA, USA). To ensure optimal animal physiology and level of anesthesia, end-tidal respiratory CO2 was measured using a Capnograph Type 340 (Harvard Apparatus, Holliston, MA, USA), and mean arterial blood pressure was monitored using a BP-1 pressure monitor (World Precision Instruments, Sarasota, FL, USA).
Imaging of BBB permeation: TAMRA-Tat, TAMRA-Tat-NR2B9c, and TAMRA-Tat-N-dimer were administered as 60 µL bolus injections via the catheter inserted into the femoral artery (3 nmol/g body weight). […] The imaging was performed using an SP5 upright laser scanning microscope equipped with a 20 × 1.0 N.A. water-immersion objective (Leica Microsystems, Wetzlar, Germany). Images were obtained in a hyperstack mode, i.e., in a series of Z-stacks in 1-min intervals. Each Z-stack underwent a reduction of dimensionality (maximum signal intensity projection along the Z-axis). TAMRA and FITC were excited with a Millennia Pro MaiTai HP Ti:Sapphire two-photon laser (Spectra Physics, Santa Clara, CA, USA) tuned to 870 nm. The signal was acquired by two multi-alkali NDD photomultipliers after 525–560 and 560–625 nm band pass filters for FITC-dx and TAMRA fluorescence, respectively. Data were exported from LAS AF software (v. 4.4, Leica Microsystems, Wetzlar, Germany) to ImageJ v. 1.48u4 (NIH).

Each structure is given as a SMILES string. Peptide text beside a SMILES is read from it. * marks the point of attachment. 5TAMRA = CN(C)c1ccc2c(c1)Oc1cc(N(C)C)ccc1C21OC(=O)c2cc(C(=O)*)ccc21

Consider `CN(C)c1ccc2c(c1)Oc1cc(N(C)C)ccc1C21OC(=O)c2cc(C(=O)N[C@@H](Cc3ccc(O)cc3)C(=O)NCC(=O)N[C@@H](CCCNC(=N)N)C(=O)N[C@@H](CCCCN)C(=O)N[C@@H](CCCCN)C(=O)N[C@@H](CCCNC(=N)N)C(=O)N[C@@H](CCCNC(=N)N)C(=O)N[C@@H](CCC(N)=O)C(=O)N[C@@H](CCCNC(=N)N)C(=O)N[C@@H](CCCNC(=N)N)C(=O)N[C@@H](CCCNC(=N)N)C(=O)O)ccc21` [TAMRA-Tat], for which, in data set [1], the “barrier integrity (TEER before and after peptide application)” value was “significant decrease in TEER”. For the same compound, the “% of the initial concentration remaining after 4 h of incubation in serum-supplemented cell media” value (“% of the initial concentration remaining” for short) in data set [2] was 56.0% ± 8.9%. In addition, in the data set with blood–brain barrier, the “BBB permeation: AUC of change in TAMRA fluorescence in the brain parenchyma” value (“BBB permeation: AUC of change” for short) is 32.21 ± 10.17 F/F0 min and the “clearance: AUC of decreased fluorescence in the blood stream” value (from here on “clearance: AUC of decreased fluorescence”) is recorded as −17.85 ± 1.71 F/F0 min.
For the compound `CC[C@H](C)[C@H](NC(=O)CCOCCOCCN(CCOCCOCCC(=O)N[C@H](C(=O)N[C@@H](CCC(=O)O)C(=O)N[C@H](C(=O)N[C@@H](CC(=O)O)C(=O)N[C@H](C(=O)O)C(C)C)[C@@H](C)O)[C@@H](C)CC)C(=O)[C@H](CCCNC(=N)N)NC(=O)[C@H](CCCNC(=N)N)NC(=O)[C@H](CCCNC(=N)N)NC(=O)[C@H](CCC(N)=O)NC(=O)[C@H](CCCNC(=N)N)NC(=O)[C@H](CCCNC(=N)N)NC(=O)[C@H](CCCCN)NC(=O)[C@H](CCCCN)NC(=O)[C@H](CCCNC(=N)N)NC(=O)CNC(=O)[C@H](Cc1ccc(O)cc1)NC(=O)c1ccc2c(c1)C(=O)OC21c2ccc(N(C)C)cc2Oc2cc(N(C)C)ccc21)C(=O)N[C@@H](CCC(=O)O)C(=O)N[C@H](C(=O)N[C@@H](CC(=O)O)C(=O)N[C@H](C(=O)O)C(C)C)[C@@H](C)O` [TAMRA-Tat-N-dimer], the “barrier integrity (TEER before and after peptide application)” value in data set [1] is “did not affect the barrier integrity”. Besides, the “barrier integrity (TEER) upon co-application of FITC-dextran with peptide” value in data set [1] (1 mg/mL FITC-dextran with 100 µM peptide) was “did not affect barrier integrity”. Further, the “% of the initial concentration remaining” value in data set [2] is 88.1% ± 1.8%. Further, in the data set with blood–brain barrier, the “BBB permeation: AUC of change” value turned out to be 6.90 ± 3.90 F/F0 min and the “clearance: AUC of decreased fluorescence” value is reported as −15.02 ± 0.55 F/F0 min.
Turning to `CC[C@H](C)[C@H](NC(=O)[C@H](CO)NC(=O)[C@H](CO)NC(=O)[C@H](CC(C)C)NC(=O)[C@H](CCCCN)NC(=O)c1ccc2c(c1)C(=O)OC21c2ccc(N(C)C)cc2Oc2cc(N(C)C)ccc21)C(=O)N[C@@H](CCC(=O)O)C(=O)N[C@@H](CO)C(=O)N[C@@H](CC(=O)O)C(=O)N[C@H](C(=O)O)C(C)C` [TAMRA-NR2B9c] (5TAMRA-KLSSIESDV-OH), the “barrier integrity (TEER before and after peptide application)” value in data set [1] is given as “did not affect the barrier integrity”. The “% of the initial concentration remaining” value in data set [2] is listed as 92.0% ± 12.6%.
With `CC[C@H](C)[C@H](NC(=O)[C@H](CO)NC(=O)[C@H](CO)NC(=O)[C@H](CC(C)C)NC(=O)[C@H](CCCCN)NC(=O)[C@H](CCCNC(=N)N)NC(=O)[C@H](CCCNC(=N)N)NC(=O)[C@H](CCCNC(=N)N)NC(=O)[C@H](CCC(N)=O)NC(=O)[C@H](CCCNC(=N)N)NC(=O)[C@H](CCCNC(=N)N)NC(=O)[C@H](CCCCN)NC(=O)[C@H](CCCCN)NC(=O)[C@H](CCCNC(=N)N)NC(=O)CNC(=O)[C@H](Cc1ccc(O)cc1)NC(=O)c1ccc2c(c1)C(=O)OC21c2ccc(N(C)C)cc2Oc2cc(N(C)C)ccc21)C(=O)N[C@@H](CCC(=O)O)C(=O)N[C@@H](CO)C(=O)N[C@@H](CC(=O)O)C(=O)N[C@H](C(=O)O)C(C)C` [TAMRA-Tat-NR2B9c] (5TAMRA-YGRKKRRQRRRKLSSIESDV-OH), the “barrier integrity (TEER before and after peptide application)” value in data set [1] is on record as “significant decrease in TEER”. Further, in data set [2], the “% of the initial concentration remaining” value is listed as 34.3% ± 1.7%. In the data set on blood–brain barrier, the “BBB permeation: AUC of change” value turned out to be 5.54 ± 2.95 F/F0 min and the “clearance: AUC of decreased fluorescence” value is recorded as −4.97 ± 1.26 F/F0 min.
